Test system: S. aureus (UAMS-1)
Assay: Osteomyelitis model in New Zealand White rabbits
Type: in vivo
Details: rabbit radius defect, 3 weeks, H&E
Method: This animal model was approved by the IACUC at the University of Arkansas Medical Sciences with all appropriate measures taken to minimize pain and discomfort. This in vivo model is an adaptation of the work by Smeltzer et al J Orthop Res, 1997 15(3):414-21. Female New Zealand White rabbits weighing 2-3 kg were divided into 5 groups (n=6/group) including the following: no treatment control, a hollow PMMA (Orthoset, MicroPort Memphis, TN) cylinder with amikacin and vancomycin (approximately 15 mg/implant), a vancomycin sprinkle of 10 mg, the Ch-PEG paste, and the ChMPEG paste. Rabbits were anesthetized with 1-2 cc of a xylazine/ketamine mixture intramuscularly for a dose range of […] xylazine and 30-40 mg/kg ketamine. Rabbits were maintained on isoflurane administered by nose cone to produce surgical anesthesia and monitored by a veterinary technician. The right forelimb of each rabbit was shaved and prepped using a betadine scrub and rinsed with 70% ethanol. An incision was made on the anterior surface of the right forelimb through the epidermis, musculature, and fascia until the radius was exposed. A 1 cm mid-radial segment was excised from the right radial bone using a miniature saw blade (Exakt, Oklahoma City, OK). […]

CN[C@H](CC(C)C)C(=O)N[C@H]1C(=O)N[C@@H](CC(N)=O)C(=O)N[C@H]2C(=O)N[C@H]3C(=O)N[C@H](C(=O)N[C@H](C(=O)O)c4cc(O)cc(O)c4-c4cc3ccc4O)[C@H](O)c3ccc(c(Cl)c3)Oc3cc2cc(c3O[C@@H]2O[C@H](CO)[C@@H](O)[C@H](O)[C@H]2O[C@H]2C[C@](C)(N)[C@H](O)[C@H](C)O2)Oc2ccc(cc2Cl)[C@H]1O [vancomycin powder, vancomycin]
inflammation in histological sections of bone in the defect: areas of high inflammatory cell presence | tissue growth / fill in the defect (histology): tissue fill within the defect

— patent US12447193B2, “Compositions and methods for prevention and treatment of infections” (The University of Memphis Research Foundation, priority 2019, dated 2025)
